The compounds below were run against PIK3CA (human) (UniProt P42336) (assay: Inhibition of PIK3CA Kinase Activity).
Chain of PIK3CA (human) (P42336 whole entry, looked up): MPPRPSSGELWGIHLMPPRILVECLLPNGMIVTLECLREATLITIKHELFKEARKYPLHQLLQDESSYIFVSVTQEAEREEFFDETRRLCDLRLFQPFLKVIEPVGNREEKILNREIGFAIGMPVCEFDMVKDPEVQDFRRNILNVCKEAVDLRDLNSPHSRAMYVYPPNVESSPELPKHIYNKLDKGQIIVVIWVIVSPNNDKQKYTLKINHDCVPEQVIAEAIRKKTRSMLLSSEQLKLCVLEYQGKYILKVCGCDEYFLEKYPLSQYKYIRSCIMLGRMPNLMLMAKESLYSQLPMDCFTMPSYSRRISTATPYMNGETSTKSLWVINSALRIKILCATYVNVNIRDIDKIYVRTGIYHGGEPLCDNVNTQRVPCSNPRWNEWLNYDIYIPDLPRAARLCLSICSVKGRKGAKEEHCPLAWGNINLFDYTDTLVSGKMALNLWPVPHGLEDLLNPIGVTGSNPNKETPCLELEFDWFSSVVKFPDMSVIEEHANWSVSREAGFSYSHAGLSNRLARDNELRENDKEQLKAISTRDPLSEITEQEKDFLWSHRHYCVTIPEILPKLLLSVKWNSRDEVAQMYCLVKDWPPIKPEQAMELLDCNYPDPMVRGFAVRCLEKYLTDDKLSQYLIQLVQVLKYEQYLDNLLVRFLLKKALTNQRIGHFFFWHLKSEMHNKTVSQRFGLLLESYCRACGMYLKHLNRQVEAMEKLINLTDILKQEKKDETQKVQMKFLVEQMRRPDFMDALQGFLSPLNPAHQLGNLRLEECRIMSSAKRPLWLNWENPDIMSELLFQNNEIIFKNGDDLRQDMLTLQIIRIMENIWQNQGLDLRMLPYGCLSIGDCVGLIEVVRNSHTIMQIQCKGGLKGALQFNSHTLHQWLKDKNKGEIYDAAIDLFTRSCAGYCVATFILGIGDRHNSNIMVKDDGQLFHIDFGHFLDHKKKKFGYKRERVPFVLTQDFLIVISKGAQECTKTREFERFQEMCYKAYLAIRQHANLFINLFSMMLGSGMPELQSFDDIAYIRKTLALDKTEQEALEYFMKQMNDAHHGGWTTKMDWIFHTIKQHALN

IC50 | SMILES
0.01 to 0.05 µM | CC(C)(N)CCNS(=O)(=O)c1cc(-c2ccc3c(c2)CN(c2ncnc4c2CC(C)(C)CC4)CCO3)cnc1N
0.01 to 0.05 µM | Cc1ncnc(N2CCOc3ccc(-c4ccc5nc(N)cn5c4)cc3C2)c1Cc1ccc(F)cc1
0.01 to 0.05 µM | CC1=Cc2ncnc(N3CCOc4ccc(-c5cnc(N)c(S(=O)(=O)NC[C@H]6CCN(C)C6)c5)cc4C3)c2CC1(C)C
0.05 to 0.25 µM | Cc1nc2ccc(-c3ccc4c(c3)CN(c3ncnc5ccc(Br)cc35)CCO4)cc2[nH]1
0.01 to 0.05 µM | CCC1CCc2ncnc(N3CCOc4ccc(-c5cnc6nc(C)[nH]c6c5)cc4C3)c2C1 (stereo not drawn)
≤ 0.01 µM | COc1ccc2c(N3CCOc4ccc(-c5cnc(Cl)c(NS(C)(=O)=O)c5)cc4C3)ncnc2c1
0.05 to 0.25 µM | Cc1nc2ccc(-c3ccc4c(c3)CN(c3ncnc(C(C)C)c3C)CCO4)cc2[nH]1
0.05 to 0.25 µM | CC1(C)CCc2ncnc(N3CCOc4ccc(-c5cnc6c(c5)S(=O)(=O)NC(=O)N6)cc4C3)c2C1
≤ 0.01 µM | CCc1c(C)nc(CN(C)C)nc1N1CCOc2ccc(-c3cnc4sc(N)nc4c3)cc2C1
0.05 to 0.25 µM | CNc1ncc(-c2ccc3c(c2)CN(c2ncnc4c2CC(C)(C)CC4)CCO3)cc1NS(C)(=O)=O
≤ 0.01 µM | CC1(C)CCc2ncnc(N3CCOc4ccc(-c5cnc(N)c(S(=O)(=O)N6CC(O)C6)c5)cc4C3)c2C1
0.01 to 0.05 µM | CCNc1nc2ccc(-c3ccc4c(c3)CN(c3ncnc(Nc5ccc(OC)cc5)c3C)CCO4)cc2[nH]1
0.01 to 0.05 µM | CC1(C)CCc2ncnc(N3CCOc4ccc(-c5cnc(N)c(S(=O)(=O)NCC(O)CO)c5)cc4C3)c2C1 (stereo not drawn)
0.01 to 0.05 µM | Cc1ncnc(N2CCOc3ccc(-c4cnc5nc[nH]c5c4)cc3C2)c1Cc1ccc(F)cc1
≤ 0.01 µM | Nc1nc2ncc(-c3ccc4c(c3)CN(c3ncnc5ccc(I)cc35)CCO4)cc2[nH]1
≤ 0.01 µM | CC[C@H]1CCc2c(ncnc2N2CCOc3ccc(-c4cnc5nc(N)[nH]c5c4)cc3C2)C1
0.01 to 0.05 µM | CCc1nc2cc(-c3ccc4c(c3)CN(c3ncnc5c3CC(C)(C)CC5)CCO4)cnc2[nH]1
0.05 to 0.25 µM | Cc1nc2ccc(-c3ccc4c(c3)CN(c3ncnc5c(Br)cccc35)CCO4)cc2[nH]1
0.01 to 0.05 µM | Cc1nc2ccc(-c3ccc4c(c3)CN(c3ncnc5ccccc35)CCO4)cc2[nH]1
0.01 to 0.05 µM | CC(C)(O)CCS(=O)(=O)c1cc(-c2ccc3c(c2)CN(c2ncnc4c2CC(C)(C)CC4)CCO3)cnc1N
0.01 to 0.05 µM | COc1ccc2c(N3CCOc4ccc(-c5cnc6sc(NC(C)=O)nc6c5)cc4C3)nc(CN(C)C)nc2c1
0.05 to 0.25 µM | Cc1nc2ccc(-c3ccc4c(c3)CN(c3nccc5ccccc35)CCO4)cc2[nH]1

IC50 | SMILES
0.01 to 0.05 µM | Cc1nc2ccc(-c3ccc4c(c3)CN(c3nc(CN5CC[C@H](F)C5)nc5c3CC(C)(C)CC5)CCO4)cc2[nH]1
0.05 to 0.25 µM | Cc1nc2ccc(-c3ccc4c(c3)CN(c3ncnc(C)c3Cc3cccc(C(F)(F)F)c3)CCO4)cc2[nH]1
≤ 0.01 µM | CNS(=O)(=O)c1cc(-c2ccc3c(c2)CN(c2ncnc4c2CC(C)(C)CC4)CCO3)cnc1N
0.01 to 0.05 µM | Cc1nc(Nc2ccccc2)c(C)c(N2CCOc3ccc(-c4cnc5nc[nH]c5c4)cc3C2)n1
0.05 to 0.25 µM | COc1cc2ncnc(N3CCOc4ccc(-c5ccc6nc(C)[nH]c6c5)cc4C3)c2cc1OC
0.05 to 0.25 µM | CC[C@H]1CCc2c(ncnc2N2CCOc3ccc(-c4cnc5nc([C@@H](C)N)[nH]c5c4)cc3C2)C1
0.01 to 0.05 µM | Cc1nc2cc(-c3ccc4c(c3)CN(c3nc(NCCN(C)C)nc(C)c3Cc3ccc(F)cc3)CCO4)ccc2[nH]1
0.01 to 0.05 µM | Cc1nc(C)c(CC2CC2)c(N2CCOc3ccc(-c4cnc5nc(C6CC6)[nH]c5c4)cc3C2)n1
0.05 to 0.25 µM | Cc1ncnc(N2CCOc3ccc(-c4cnc5nc(N)cn5c4)cc3C2)c1Cc1ccc(F)cc1
0.05 to 0.25 µM | CCOC(=O)Nc1nc2ncc(-c3ccc4c(c3)CN(c3ncnc5c3CC(C)(C)CC5)CCO4)cc2[nH]1
0.01 to 0.05 µM | CC1(C)CCc2ncnc(N3CCOc4ccc(-c5cnc(N)c(S(=O)(=O)N6CCC(C)(N)C6)c5)cc4C3)c2C1 (stereo not drawn)
0.25 to 1 µM | Cc1ncnc(N2CCOc3ccc(-c4ccc(C(=O)NC5CC5)cc4)cc3C2)c1Cc1ccc(F)cc1
0.05 to 0.25 µM | CNC(=O)Nc1ccc(-c2ccc3c(c2)CN(c2nc(C)nc4cc(OC)ccc24)CCO3)cc1
0.25 to 1 µM | CCSc1nc2c(c(N3CCOc4ccc(-c5ccc6nc(C)[nH]c6c5)cc4C3)n1)CCC2
0.01 to 0.05 µM | Cc1nc2ccc(-c3ccc4c(c3)CN(c3ccnc(C)c3Cc3ccccc3)CCO4)cc2[nH]1
0.05 to 0.25 µM | CC1(C)CCc2ncnc(N3CCOc4ccc(-c5cnc(N)c(S(=O)(=O)N6CCOCC6)c5)cc4C3)c2C1
0.01 to 0.05 µM | COC(=O)Nc1nc2ccc(-c3ccc4c(c3)CN(c3ncnc5ccccc35)CCO4)cc2[nH]1
0.01 to 0.05 µM | CCN(CC)Cc1nc(C)c(C(C)C)c(N2CCOc3ccc(-c4ccc5nc(C)[nH]c5c4)cc3C2)n1
≤ 0.01 µM | COc1ccc2c(N3CCOc4ccc(-c5ccc6nc(N)[nH]c6c5)cc4C3)nc(C)nc2c1
0.01 to 0.05 µM | Cc1nc2cc(-c3ccc4c(c3)CN(c3nc(CN5CCCC5)nc(C)c3C(C)C)CCO4)ccc2[nH]1
0.01 to 0.05 µM | CCC1CCc2nc(C)nc(N3CCOc4ccc(-c5cnc6nc(C)[nH]c6c5)cc4C3)c2C1 (stereo not drawn)
0.25 to 1 µM | COC(=O)Nc1nc2ccc(-c3ccc4c(c3)CN(c3ncnc5[nH]ccc35)CCO4)cc2[nH]1

IC50 | SMILES
0.25 to 1 µM | Cc1nc2ccc(-c3ccc4c(c3)CN(c3ccncn3)CCO4)cc2[nH]1
0.25 to 1 µM | CNCCN(C)c1ncnc(N2CCOc3ccc(-c4cnc5nc(C6CC6)[nH]c5c4)cc3C2)c1C
0.01 to 0.05 µM | CCS(=O)(=O)c1cc(-c2ccc3c(c2)CN(c2ncnc4c2CC(C)(C)CC4)CCO3)cnc1N
0.05 to 0.25 µM | Cc1nc2ccc(-c3ccc4c(c3)CN(c3ncnc5cc(F)c(F)cc35)CCO4)cc2[nH]1
0.01 to 0.05 µM | COC(=O)Nc1nc2ccc(-c3ccc4c(c3)CN(c3ncnc5ccc(OC)cc35)CCO4)cc2[nH]1
0.01 to 0.05 µM | CCNc1nc(C)nc(N2CCOc3ccc(-c4cnc5nc(C)[nH]c5c4)cc3C2)c1C
0.25 to 1 µM | CCNc1nc2ccc(-c3ccc4c(c3)CN(c3ccncn3)CCO4)cc2[nH]1
0.01 to 0.05 µM | Cc1nc2ncc(-c3ccc4c(c3)CN(c3nc(CNC5CCCC5)nc5c3CC(C)(C)CC5)CCO4)cc2[nH]1
0.01 to 0.05 µM | CCc1nc(CN(C)C)nc(N2CCOc3ccc(-c4ccc5[nH]c(C)nc5c4)cc3C2)c1C
0.05 to 0.25 µM | CNC(=O)c1ccc(-c2ccc3c(c2)CN(c2ccnc4ccccc24)CCO3)cc1
0.01 to 0.05 µM | CC1=CC(C)(C)Cc2c1ncnc2N1CCOc2ccc(-c3cnc4nc(C)[nH]c4c3)cc2C1
0.25 to 1 µM | c1ccc2c(N3CCOc4ccc(-c5ccc6[nH]ncc6c5)cc4C3)ccnc2c1
0.25 to 1 µM | Cc1nc2ccc(-c3ccc4c(c3)CN(c3ncnc5cc(Cl)c(Br)cc35)CCO4)cc2[nH]1
≤ 0.01 µM | CCNc1nc2ccc(-c3ccc4c(c3)CN(c3ccnc5ccccc35)CCO4)cc2[nH]1
≤ 0.01 µM | CCNc1nc2ccc(-c3ccc4c(c3)CN(c3cc(C)nc5ccccc35)CCO4)cc2[nH]1
≤ 0.01 µM | CN(CCO)S(=O)(=O)c1cc(-c2ccc3c(c2)CN(c2ncnc4c2CC(C)(C)CC4)CCO3)cnc1N
0.01 to 0.05 µM | Cc1ncnc(N2CCOc3ccc(-c4ccc5nc(N)[nH]c5n4)cc3C2)c1Cc1ccc(F)cc1
0.01 to 0.05 µM | Cc1nc2c(c(N3CCOc4ccc(-c5cnc6sc(N)nc6c5)cc4C3)n1)CC(C)(C)CC2
≤ 0.01 µM | Cc1nc2cc(-c3ccc4c(c3)CN(c3nc(CN(C)C)nc(C)c3Cc3ccc(F)cc3)CCO4)cnc2[nH]1
0.01 to 0.05 µM | C[C@H]1CCc2c(ncnc2N2CCOc3ccc(-c4cnc5nc(C6CC6)[nH]c5c4)cc3C2)C1
0.05 to 0.25 µM | COc1ccc2c(N3CCOc4ccc(-c5cnc6[nH]ccc6c5)cc4C3)nc(C)nc2c1
0.25 to 1 µM | CC1(C)CCc2ncnc(N3CCOc4ccc(-c5ccc(Cl)c(NS(C)(=O)=O)c5)cc4C3)c2C1

IC50 | SMILES
0.25 to 1 µM | Cc1nc2ccc(-c3ccc4c(c3)CN(c3ccnc(N)n3)CCO4)cc2[nH]1
0.01 to 0.05 µM | COC(=O)Nc1nc2ncc(-c3ccc4c(c3)CN(c3ccnc5cc(OC)c(OC)cc35)CCO4)cc2[nH]1
0.05 to 0.25 µM | CCOc1ncc(-c2ccc3c(c2)CN(c2ncnc4c2CC(C)(C)CC4)CCO3)cc1NS(C)(=O)=O
0.05 to 0.25 µM | COCCOc1cc(-c2ccc3c(c2)CN(c2nc(CN(C)C)nc4c2CC(C)(C)CC4)CCO3)ccc1OC
0.01 to 0.05 µM | Cc1nc2ncc(-c3ccc4c(c3)CN(c3ncnc5c3CCC(C)C5)CCO4)cc2[nH]1 (stereo not drawn)
0.25 to 1 µM | COC(=O)Nc1nc2ccc(-c3ccc4c(c3)CN(c3ccnc5ccccc35)CCO4)cc2n1C
0.05 to 0.25 µM | Cc1nc(N)sc1-c1ccc2c(c1)CN(c1ncnc3c1CCC(C)(C)C3)CCO2
0.25 to 1 µM | Cc1nc2ccc(-c3ccc4c(c3)CN(c3ncnc5scc(C)c35)CCO4)cc2[nH]1
0.01 to 0.05 µM | COCc1nc2c(c(N3CCOc4ccc(-c5cnc6[nH]c(C)nc6c5)cc4C3)n1)CC(C)(C)CC2
0.01 to 0.05 µM | Cc1nc2ncc(-c3ccc4c(c3)CN(c3ncnc5c3CC[C@H](C)C5)CCO4)cc2[nH]1
≤ 0.01 µM | Cc1nc2ccc(-c3ccc4c(c3)CN(c3nc(CN(C)C)nc5c3CC(C)(C)CC5)CCO4)cc2[nH]1
0.05 to 0.25 µM | CC1(C)CCc2ncnc(N3CCOc4ccc(-c5cnc6[nH]c(C(F)F)nc6c5)cc4C3)c2C1
0.01 to 0.05 µM | CC1(C)CCc2ncnc(N3CCOc4ccc(-c5cnc(N)c(S(=O)(=O)N6C7CCC6CC(N)C7)c5)cc4C3)c2C1 (stereo not drawn)
0.05 to 0.25 µM | CN1CC[C@H](CNS(=O)(=O)c2cc(-c3ccc4c(c3)CN(c3ncnc5c3CC(C)(C)CC5)CCO4)cnc2N)C1
0.25 to 1 µM | CC1(C)CCc2ncnc(N3CCOc4ccc(-c5cnc6nccnc6c5)cc4C3)c2C1
≤ 0.01 µM | CCNc1nc2ccc(-c3ccc4c(c3)CN(c3ccnc5cc(F)ccc35)CCO4)cc2[nH]1
≤ 0.01 µM | CCc1c(C)nc(CN(C)C)nc1N1CCOc2ccc(-c3cnc4[nH]c(C)nc4c3)cc2C1
0.05 to 0.25 µM | COCCOCc1nc2c(c(N3CCOc4ccc(-c5ccc6nc(C)[nH]c6c5)cc4C3)n1)CC(C)(C)CC2
0.05 to 0.25 µM | Cc1ccc(Cc2c(C)ncnc2N2CCOc3ccc(-c4ccc5nc(C)[nH]c5c4)cc3C2)cc1
0.01 to 0.05 µM | Cc1nc2ncc(-c3ccc4c(c3)CN(c3ncnc5c3CCC(C(C)O)C5)CCO4)cc2[nH]1 (stereo not drawn)
0.01 to 0.05 µM | Cc1nc2ccc(-c3ccc4c(c3)CN(c3ncnc(C)c3Cc3cc(F)cc(F)c3)CCO4)cc2[nH]1
0.05 to 0.25 µM | CC1(C)CCc2ncnc(N3CCOc4ccc(-c5cnc(C#N)c(NS(C)(=O)=O)c5)cc4C3)c2C1
